Measured values: patent publication US5753631A, “Intercellular adhesion mediators” (Cytel Corporation, priority 1995, dated 1998)
pIC50: −log10 of the molar value.

Experiments:
recombinant E-selectin = target: T1, recombinant E-selectin (Homo sapiens, UniProt P16581); test: HL-60 cell binding to recombinant E-selectin; type: cell-based; details: for inhibition of binding of HL-60 cells to recombinant E-selectin: FIG. 13
T1 sequence (P16581 22-556 limits assumed): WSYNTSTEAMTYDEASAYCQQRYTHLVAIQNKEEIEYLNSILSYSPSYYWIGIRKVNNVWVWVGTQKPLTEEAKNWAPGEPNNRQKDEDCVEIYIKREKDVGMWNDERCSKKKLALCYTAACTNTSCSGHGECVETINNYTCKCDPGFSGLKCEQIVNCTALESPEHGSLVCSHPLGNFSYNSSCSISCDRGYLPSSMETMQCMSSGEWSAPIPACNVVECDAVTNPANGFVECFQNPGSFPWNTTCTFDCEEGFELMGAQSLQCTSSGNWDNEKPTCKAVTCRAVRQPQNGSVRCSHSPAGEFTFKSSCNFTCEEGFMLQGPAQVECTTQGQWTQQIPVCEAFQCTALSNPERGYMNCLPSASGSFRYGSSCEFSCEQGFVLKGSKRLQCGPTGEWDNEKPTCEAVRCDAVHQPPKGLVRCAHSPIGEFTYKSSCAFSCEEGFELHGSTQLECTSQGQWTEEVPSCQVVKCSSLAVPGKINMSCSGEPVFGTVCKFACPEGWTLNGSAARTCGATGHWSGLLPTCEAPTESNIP
Protocol: In this assay recombinant soluble E-selectin is bound to the plastic surface of a 96 well ELISA plate. Dilutions of test compounds are added to the wells followed by HL-60 cells which bear the ligand for E-selectin. The cells are allowed to adhere to the E-selectin coated assay plate and the nonadherent cells are removed by washing the plate with an automated plate washer. Bound cells are quantitated by measuring the cellular enzyme myeloperoxidase. The concentration of oligosaccharide required to achieve 50% inhibition of control adhesion is used to compare analogs for potency.
Microflex III 96 well ELISA plates were coated with 50 μL of recombinant E-selectin (4 μg/mL) in Dulbecco's phosphate buffered saline (DPBS) and incubated at room temperature for 3 hours. The plates were then washed three times with 200 μL DPBS containing bovine serum albumin (10 mg/mL: DPBS-BSA) and incubated at room temperature for 60 minutes with DPBS-BSA.
Oligosaccharides to be tested were prepared in 1.5 mL eppendorf tubes by adding enough DPBS to make each sample a 10 mM solution according to its molecular weight. The pH was adjusted to be within 7.0 and 7.4.
After 30 minutes 2×10^5 HL-60 cells (10^7 /mL) were added and incubated for 15 minutes at room temperature. The unbound cells were removed by washing the plate 3 times with HBSS containing HEPES buffer (20 mM), glucose (0.2%), CaCl2 (1 mM) and BSA (10 mg/mL). After removal of the wash buffer the bound cells remaining were lysed by addition of Nonidet P 40 (0.1%) in 25 mM citrate/phosphate buffer. After 5 minutes 50 μL of o-phenylenediamine dihydrochloride (1 mg/mL) in citrate/phosphate buffer containing 0.001% hydrogen peroxide was added to each well. After 5 to 10 minutes the development of color was halted by the addition of 40 μL of H2 SO4. Color developed was measured in a plate reading spectrophotometer at 492 nm.

[1] = system: histamine induced leukocyte rolling in rat mesenteric venules; test: Histamine induced leukocyte rolling and adherence in rat mesenteric venules (intravital microscopy); type: in vivo, rat (male Sprague-Dawley); details: for effect on histamine induced leukocyte rolling: 10^-5 M histamine, FIG. 15; for Erythrocyte velocity / Leukocyte adherence / Leukocyte emigration / Venular diameter / Wall shear rate: with histamine 10^-5 M, Z, SLN 10 mg/Kg i.v., antibodies 2 mg/Kg i.v.
Protocol: Surgical procedure. Sixty-four male Sprague-Dawley rats (200-250 g) were maintained on a purified laboratory diet and fasted for 24 hours prior to the experiment. The animals were initially anesthetized with pentobarbital (65 mg/kg body weight), then a tracheotomy was performed to facilitate breathing during the experiment. The right carotid artery was cannulated and systemic arterial pressure was measured with a Statham (Oxnard, Calif.) P23A pressure transducer connected to the carotid artery cannula. Systemic blood pressure and heart rate were continuously recorded with a Grass physiologic recorder (Grass Instruments, Massachusetts). The left jugular vein was also cannulated for drug administration and blood sample collection. After a midline abdominal incision a segment of the mid-jejunum was exteriorized. All exposed tissue was moistened with saline-soaked gauze to minimize evaporation and dehydration.
Intravital microscopy. Rats were placed in a supine position on an adjustable plexiglass microscope stage and the mesentery was draped over an optically clear coverslip that allowed for observation of a 2 cm^2 segment of tissue. The temperature of the pedestal was maintained at 37° C. with a constant temperature circulator (Fisher Scientific, model 80). A small rubber gasket (area=3.14 cm^2) was placed on the mesentery and the outside area of contact between the gasket and mesentery was sealed (to prevent leakage of superfusate from the ring) with a mixture of high vacuum grease (Dow Corning Corp., Midland, Mich.) and white petrolatum (E. Fougera & Co., Melville, N.Y.). Rectal and mesenteric temperatures were continuously monitored using an electrothermometer. The exposed bowel wall was covered with Saran Wrap (Dow Chemical Co., Indiana), and the mesenteric tissue within the gasket was suffused with warmed bicarbonate-buffered saline (BBS; pH 7.4) that was bubbled with a mixture of 5% O2; 5% CO2; 90% N2.
An inverted microscope (Nikon Optiphoto, Japan) with a ×40 objective lens (Nikon Optiphoto, Japan) and a ×10 eyepiece was used to observe the mesenteric microcirculation. The mesentery was transilluminated with a 12 V-100 W direct current-stabilized light source. A video camera (Hitachi, VK-C150, Japan) mounted on the microscope projected the image onto a color monitor (Sony, PVM-2030, Japan), and the images were recorded using a video cassette recorder (Panasonic, NV8950, Japan). A video time-date generator (Panasonic, WJ810, Japan) projected the time, date, and stopwatch function onto the monitor.
Single unbranched venules with diameters ranging between 25 μm and 35 μm and a length>150 μm were selected for study. Venular diameter (Dv) was measured either on- or off-line using a video image-shearing monitor (IPM, La Mesa, Calif.). The number of adherent leukocytes was determined off-line during playback of videotaped images. A leukocyte was considered to be adherent to venular endothelium if it remained stationary for a period equal to or greater than 30 seconds. Adherent cells were expressed as the number per 100 μm length of venule. The number of emigrated leukocytes was also determined off-line during playback of videotaped images. Ary interstitial leukocytes present in the mesentery at the onset of the experiment were subtracted from the total number of leukocytes that accumulated during the course of the experiment. Leukocyte emigration was expressed as the number per microscopic field (1.7×10^-2 mm^2) or 150 μm length of venule. Rolling leukocytes were defined as those white blood cells that moved at a velocity less than that of erythrocytes in the same stream. The flux of rolling leukocytes was determined as the number of rolling leukocytes which crossed a fixed point on the venule over a given period of time. Leukocyte rolling velocity was determined from the time required for a leukocyte to roll along a given distance of the venule.

[2] = system: IgG immune complex-induced acute lung injury; test: IgG immune complex-induced acute lung injury in the rat; type: in vivo, rat (male Long-Evans); details: for effect on IgG immune complex-induced neutrophil accumulation / lung injury: conclusion in words
[3] = i.v. at 2.5, 3.0 and 3.5 h (FIG. 18), P<0.05

Compound | inhibition of binding of HL-60 cells to recombinant E-selectin (recombinant E-selectin) | pIC50 (recombinant E-selectin; read-out: IC50 for inhibition of HL-60 cell binding to recombinant E-selectin) | effect on leukocyte adherence induced by 10^-5 M histamine ([1]; 10 mg/Kg i.v.) | effect on histamine induced leukocyte rolling [1] | Erythrocyte velocity [1] | Leukocyte adherence [1] | Leukocyte emigration [1] | Venular diameter [1] | Wall shear rate [1] | effect on lung MPO content ([2]; 50 μg (FIG. 19)) | effect on lung MPO content ([2]; 100, 200 and 300 μg (FIG. 19)) | effect on vascular permeability ([2]; all doses, 50-500 μg (FIG. 19)) | effect on IgG immune complex-induced neutrophil accumulation / lung injury [2] | reduction in MPO content [2, 3] | reduction in permeability [2, 3] | reduction in hemorrhage ([2]; i.v. at 2.5, 3.0 and 3.5 h (FIG. 18), P=N.S.) | effect on hemorrhage ([2]; two highest doses (FIG. 19)) | effect on hemorrhage ([2]; versus PBS treated animals) | effect on lung content of MPO ([2]; versus PBS treated animals) | effect on vascular permeability ([2]; versus PBS treated animals)
CCO[C@@H]1O[C@H](CO)[C@H](O)[C@H](O[C@@H]2O[C@H](CO)[C@@H](O[C@@H]3O[C@H](CO)[C@H](O)[C@H](O[C@]4(C(=O)O)C[C@H](O)[C@@H](NC(C)=O)[C@H]([C@H](O)[C@H](O)CO)O4)[C@H]3O)[C@H](O[C@@H]3O[C@@H](C)[C@@H](O)[C@@H](O)[C@@H]3O)[C@H]2NC(C)=O)[C@H]1O [Z, Ethyl(sodium(5-acetamido-3,5-dideoxy-α-D-glycero-D-galacto-2-nonulopyanosylonate))-(2-3)-O-(β-D-galactopyranosyl)-(1-4)-O-((α-L-fucopyranosyl)-(1-3))-O-(2-acetamido-2-deoxy-β-D-glucopyranosyl)-(1-3)-O-β-D-galactopyranoside] | inhibited in a concentration dependent manner | ~3.30 | significantly attenuated | inhibited leukocyte rolling | 2.1 ± 0.2 mm/sec | 2.3 ± 1.9 per 100 μm | 2.0 ± 1.2 per field | 29 ± 0.2 μm | 355 ± 14 s⁻¹ | did not significantly reduce MPO content | significant reductions | significant reductions in vascular permeability | blocked IgG | 27% | 20% | 21% | statistically significant reductions in hemorrhage | – | – | –
CC(=O)NC1C(O)OC(CO)C(OC2OC(CO)C(O)C(OC3(C(=O)O)CC(O)C(NC(C)=O)C(C(O)C(O)CO)O3)C2O)C1O (stereo not shown) [SLN, reference compound] | not | – | – | had no effect | 3.0 ± 0.5 mm/sec | 5.5 ± 1.4 per 100 μm | 4.8 ± 2.8 per field | 31 ± 2 μm | 495 ± 28 s⁻¹ | – | – | – | did not inhibit IgG immune complex induced lung injury | – | – | – | – | no decrease in hemorrhage | no decrease in lung content of MPO | no alteration in vascular permeability value
